Reference: patent US8420331B2, “Type IV collagen-like immunoreactive peptide” (priority 2006, dated 2013)

What was measured:
[1] = system: antibody (IgG) in urine of nephritis patients; assay: Screening of antigenic site on alpha 5 chain NC1: ELISA with synthetic peptides as coating antigen; assay type: binding, human
Protocol: A preliminary test was carried out, using the ELISA method, in which NC1 as the antigen for coating was replaced with synthetic peptides. The measurement conditions were: antigen concentration: 10 μg/mL (10 mM PBS), 100 μL/well; blocking agent: Block Ace (manufactured by Dainippon Pharmaceutical Co., Ltd.) diluted to 25%, 250 μL/well; urine: human 20- to 100-fold dilution; second antibody (enzyme-labeled anti-human IgG antibody): ×800; and substrate solution: TMB (+) (manufactured by DAKO Corp). The specimen was diluted to 20- to 100-fold, unlike the original fourfold dilution of NC1 as the antigen. […] Accordingly, a main test was carried out using NC1 of the alpha 5 chain. Note that 301 contained the amino acid sequence about 5 to 18 from the N-terminus on the alpha 3 chain corresponding to Goodpasture syndrome specified by computer software. Furthermore, it was possible to check alpha chains other than the alpha 5 chain, such as 301. […] Therefore, it was possible to use both antigens as nephritis detection reagents.
A test was carried out using the ELISA method, in which NC1 as the antigen for coating was replaced with synthetic peptides, under the same conditions as those described above.
The peptides of the alpha 5 chain were prepared as described below. Fifteen synthetic peptides were prepared from the whole region of the alpha 5 chain NC1, in which a first unit of 20 amino acid residues was selected from the N-terminus, and subsequent units, each containing 20 amino acid residues, were selected with 5 amino acid residues overlapping each other (hereinafter referred to as yp01 to yp15 (H4NA5-1 to 5-15 in FIG. 6), yp15 containing more than 20 amino acid residues). […] Thus, the five peptides were antigenic sites common to the specimen A, the specimen B, and IgA nephropathy which were derived from different diseases. As described above, bovine glomerulus-derived NC1 and triple helix have substantially the same reactivity with nephritis urine specimens, and both are considered to be common antigens to nephritis. Thus, the triple helix (7S and/or the central helical domain) of the alpha 5 chain and peptides thereof can be considered as immunoreactive peptide candidates. The whole alpha 5 chain may be used as an antigen. However, in such a case, a time-consuming process is required.

rabbits (female) [2] = assay: Nephritis model using immunoreactive peptide as inducer, rabbits, urinary protein; assay type: in vivo, rabbit; conditions: peptide 0.3 mg/mL with FCA intradermally once in two weeks, four times
Protocol: The selected peptides can be used as an inducer of nephritis independently and/or in combination with each other. Although yp08 (SEQ ID NO: 8) and yp12 (SEQ ID NO: 6) were used as peptides and rabbits and guinea pigs were used as animals, the peptides, animals, and administration methods are not limited thereto.
(§1) Peptides 0.3 mg/mL (0.15 mg only for initial administration) together with the same amount of FCA were intradermally administered to rabbits (female) once in two weeks, four times in total.

rabbits (female) [3] = assay: ELISA antibody level in serum of peptide-immunised rabbits (peptide-coated microplate); assay type: in vivo; conditions: rabbit serum
Protocol: as §1
Furthermore, in the ELISA method in which the microplate was coated with the peptide yp12 (SEQ ID NO: 6) (10 μg/mL), in 7 weeks after the initial administration, at a dilution of 32,000 fold, the antibody level in serum reached 3.00, which is in the vicinity of the upper limit of measurement of the absorptiometer.

guinea pigs (female) = assay: ELISA antibody level in serum of peptide-immunised guinea pigs (yp12-coated microplate); assay type: in vivo; conditions: guinea pig serum, dilution 8,000 fold, 7 weeks after initial administration
Protocol: Peptides 0.1 mg/mL together with the same amount of FCA were intradermally administered to guinea pigs (female) once in two weeks, four times in total.
Furthermore, in the ELISA method in which the microplate was coated with the peptide yp12 (SEQ ID NO: 6) (10 μg/mL), in 7 weeks after the initial administration, at a dilution of 8,000 fold, the antibody level in guinea pig serum reached 3.00, which is in the vicinity of the upper limit of measurement of the absorptiometer. Furthermore, intra-abdominal administration to rats or mice of these anti-immunoreactive peptide antibodies (antiserum) enabled production of models of nephritis which was weak, close to that of human, and slowly progressive, unlike the administration of conventional anti-NC1 antibodies (antiserum).

[4] = specimen A (chronic nephritis: No. 38)
[5] = specimen B (diabetic nephritis: No. 42)

Row | Substance | reaction with urine specimen ([1]; IgA nephropathy) | reaction with urine specimen [1, 4] | reaction with urine specimen [1, 5] | urinary protein (rabbits (female) [2]) | ELISA antibody level in serum (A450 nm) (rabbits (female) [3]; dilution 32,000 fold, 7 weeks after initial administration) | ELISA antibody level in serum (A450 nm) (guinea pigs (female)) | ELISA antibody level in serum (A450 nm) (rabbits (female) [3]; dilution ×8,000)
1 | SCLEE FRSAP FIECH GRGTC (SCLEEFRSAPFIECHGRGTC; peptide with homology to Type IV collagen) [yp12, synthetic 20-residue peptide from human type IV collagen alpha 5 chain NC1] | strongly reacted | strongly reacted | strongly reacted | +2 | 3.00 | 3.00 | 
2 | PFISR CAVCE APAVV IAVHS (PFISRCAVCEAPAVVIAVHS; peptide with homology to Type IV collagen) [yp08, synthetic 20-residue peptide from human type IV collagen alpha 5 chain NC1] | strongly reacted | strongly reacted | strongly reacted | +2 |  |  | 3.00
3 | GWDSL WIGYS FMMHT SAGAE (GWDSLWIGYSFMMHTSAGAE; peptide with homology to Type IV collagen) [yp10, synthetic 20-residue peptide from human type IV collagen alpha 5 chain NC1] | strongly reacted | strongly reacted | strongly reacted |  |  |  | 
4 | STMPF MFCNI NNVCN FASRN (STMPFMFCNINNVCNFASRN; peptide with homology to Type IV collagen) [yp05, synthetic 20-residue peptide from human type IV collagen alpha 5 chain NC1] | strongly reacted | strongly reacted | strongly reacted |  |  |  | 
5 | GRGTC NYYAN SYSFW LATVD (GRGTCNYYANSYSFWLATVD; peptide with homology to Type IV collagen) [yp13, synthetic 20-residue peptide from human type IV collagen alpha 5 chain NC1] | strongly reacted | strongly reacted | strongly reacted |  |  |  | 
